# Publication PMC7918538 (Pharmaceuticals, 2021)
# Where “and” joins values, the source holds several entries; their conditions need not be identical. Equal values may be shown once. Read-outs that look alike come from different tables or passages of the source.
# What was measured:
# [1] = biological target: T1, Recombinant M. tuberculosis MbtI (Mycobacterium tuberculosis, UniProt P9WFX1); test: MbtI enzymatic inhibition assay (fluorimetric, salicylic acid formation); assay type: biochemical; settings: for activity against MbtI (in words): discussion of Table 1
# T1 construct: made in house
# Procedure: Recombinant M. tuberculosis MbtI was produced and purified as previously reported. Enzyme activity was determined at 37 °C, measuring the formation of salicylic acid by a fluorimetric assay, slightly modified from Vasan et al.. Briefly, the reactions were performed in a final volume of 400 μL of 50 mM Hepes pH 7.5, 5 mM MgCl2, containing 1-2 μM MbtI, by the addition of chorismic acid, and monitored using a Perkin-Elmer LS3 fluorimeter (Ex. λ = 305 nm, Em. λ = 420 nm). Inhibition assays were performed in the presence of the compound at 100 µM (stock solution 20 mM in DMSO) and 50 µM chorismic acid. Where possible, compounds were tested both as free acids and sodium salts, providing analogous results. […] To this end, the activity was measured at different compound concentrations, and values were calculated according to Equation (1), with Origin 8 software:(1) A[I] = A[0] × (1 −[I]/[I] + IC50) where A[I] is the activity at inhibitor concentration [I] and A[0] is the activity in the absence of the inhibitor.
# The Ki was determined at different substrate [S] and compound concentrations, using Equation (2):(2) v = Vmax[S]/[S] + Km (1 + [I]/Ki)
# [2] = biological target: T1, Recombinant M. tuberculosis MbtI; settings: cited from earlier work; for %RA (% residual enzymatic activity at 100 µM): previous furan leads I and II shown in Table 1 for comparison
# eukaryotic cells = tested on: eukaryotic cells; design: method as in PMID 32530281, PMID 30889995, PMID 29940465, PMID 29933627; settings: previous leads; cited from earlier work
# M. bovis BCG [3] = test: microbe, parasite or virus in culture; assay type: cell-based
# M. bovis BCG [4] = settings: previous lead I given for comparison; cited from earlier work
# [5] = Series A R = m-CNPh, compound 100 µM, 50 µM chorismic acid, read-out: %RA (% residual enzymatic activity at 100 µM)
# [6] = Series A R = m-CNPh, only for compounds with %RA ≤ 25%, read-out: IC50
# [7] = compound 100 µM, rounded value, read-out: % residual enzymatic activity (%RA) at 100 µM
# [8] = Series B R = p-NO2Ph, compound 100 µM, 50 µM chorismic acid, read-out: %RA (% residual enzymatic activity at 100 µM)
# [9] = Series B R = p-NO2Ph, only for compounds with %RA ≤ 25%, read-out: IC50
# [10] = Table 2, furans IV–IX, compound 100 µM, 50 µM chorismic acid, read-out: % RA (% residual enzymatic activity at 100 µM)
# [11] = Table 2, furans IV–IX, only for compounds with %RA ≤ 25%, read-out: IC50
# [12] = rounded value, read-out: IC50 against MbtI
# T1 sequence (P9WFX1 whole entry): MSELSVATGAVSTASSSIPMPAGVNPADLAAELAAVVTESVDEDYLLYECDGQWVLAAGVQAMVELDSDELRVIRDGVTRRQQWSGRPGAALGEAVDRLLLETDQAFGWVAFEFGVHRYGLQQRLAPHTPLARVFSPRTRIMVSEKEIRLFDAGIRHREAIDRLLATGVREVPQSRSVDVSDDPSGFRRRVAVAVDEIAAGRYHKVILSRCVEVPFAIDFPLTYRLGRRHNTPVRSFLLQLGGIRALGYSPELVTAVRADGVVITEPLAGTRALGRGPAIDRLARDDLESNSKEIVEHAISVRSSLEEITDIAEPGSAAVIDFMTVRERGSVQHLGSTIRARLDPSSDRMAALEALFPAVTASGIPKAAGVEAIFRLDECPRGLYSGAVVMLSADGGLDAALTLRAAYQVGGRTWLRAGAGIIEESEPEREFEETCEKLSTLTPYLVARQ
structure (smiles),measurement,setting,value
"N#Cc1cccc(-c2ccc(C(=O)O)s2)c1 [1a, 5-(3-Cyanophenyl)thiophene-2-carboxylic acid]",remaining activity at 100 µM,[1]; [5],23.7 ± 5%
same,IC50,[1]; [6],35.5 ± 1.9 µM
same,remaining activity at 100 µM,[1]; [7],~23%
same,melting point,,207 °C
"O=C(O)c1ccc(-c2ccc([N+](=O)[O-])cc2)s1 [1b, 5-(4-Nitrophenyl)thiophene-2-carboxylic acid]",remaining activity at 100 µM,[1]; [8],22.5 ± 10.8%
same,IC50,[1]; [9],18.6 ± 1.7 µM
same,remaining activity at 100 µM,[1]; [7],~23%
same,melting point,,189 °C
"N#Cc1cccc(-c2cnc(C(=O)[O-])s2)c1.[Na+] [2a, Sodium 5-(3-cyanophenyl)thiazole-2-carboxylate]",remaining activity at 100 µM,[1]; [5],24.8 ± 1.8%
same,IC50,[1]; [6],41.9 ± 7.3 µM
same,activity against MbtI (in words),[1],weaker inhibitors
same,melting point,,> 300 °C (dec.)
"O=C([O-])c1ncc(-c2ccc([N+](=O)[O-])cc2)s1.[Na+] [2b, Sodium 5-(4-nitrophenyl)thiazole-2-carboxylate]",remaining activity at 100 µM,[1]; [8],32.8 ± 2.3%
same,activity against MbtI (in words),[1],weaker inhibitors
same,melting point,,> 300 °C (dec.)
"N#Cc1cccc(-c2cnc(C(=O)[O-])o2)c1.[Na+] [3a, Sodium 5-(3-cyanophenyl)oxazole-2-carboxylate]",remaining activity at 100 µM,[1]; [5],38 ± 7.6%
same,activity against MbtI (in words),[1],negligible activity
same,melting point,,> 300 °C (dec.)
"O=C([O-])c1ncc(-c2ccc([N+](=O)[O-])cc2)o1.[Na+] [3b, Sodium 5-(4-nitrophenyl)oxazole-2-carboxylate]",remaining activity at 100 µM,[1]; [8],23 ± 7.8%
same,IC50,[1]; [9],21.1 ± 2.7 µM
same,activity against MbtI (in words),[1],modest activity
same,melting point,,> 300 °C (dec.)
"N#Cc1cccc(-c2cnc(C(=O)O)[nH]2)c1 [4a, 5-(3-Cyanophenyl)-1H-imidazole-2-carboxylic acid]",remaining activity at 100 µM,[1]; [5],21.2 ± 1%
same,IC50,[1]; [6],39.3 ± 3 µM
same,activity against MbtI (in words),[1],weak activity
same,melting point,,165 °C
"O=C(O)c1ncc(-c2ccc([N+](=O)[O-])cc2)[nH]1 [4b, 5-(4-Nitrophenyl)-1H-imidazole-2-carboxylic acid]",remaining activity at 100 µM,[1]; [8],18.2 ± 4.9%
same,IC50,[1]; [9],27.5 ± 2.3 µM
same,activity against MbtI (in words),[1],weak activity
same,melting point,,137 °C
N#Cc1cc(C(F)(F)F)ccc1-c1ccc(C(=O)O)o1 [5-(2-cyano-4-(trifluoromethyl)phenyl)furan-2-carboxylic acid],IC50,"[2]; previously published disubstituted furans, read-out: IC50 against MbtI",~18 µM
"N#Cc1cccc(-c2nnc(C(=O)O)o2)c1 [5a, 5-(3-Cyanophenyl)-1,3,4-oxadiazole-2-carboxylic acid]",remaining activity at 100 µM,[1]; [5],75 ± 9.8%
same,melting point,,222 °C (dec.)
"O=C(O)c1nnc(-c2ccc([N+](=O)[O-])cc2)o1 [5b, 5-(4-Nitrophenyl)-1,3,4-oxadiazole-2-carboxylic acid]",remaining activity at 100 µM,[1]; [8],59 ± 4.3%
same,melting point,,220 °C (dec.)
"N#Cc1cccc(-n2cc(C(=O)O)nn2)c1 [6a, 1-(3-Cyanophenyl)-1H-1,2,3-triazole-4-carboxylic acid]",remaining activity at 100 µM,[1]; [5],67.9 ± 6.6%
"O=C(O)c1cn(-c2ccc([N+](=O)[O-])cc2)nn1 [6b, 1-(4-Nitrophenyl)-1H-1,2,3-triazole-4-carboxylic acid]",remaining activity at 100 µM,[1]; [8],32.7 ± 7.8%
same,melting point,,175 °C
O=C(O)c1ccc(-c2ccccc2)o1 [III],MbtI activity (in words),[2]; removal of the substituent from the phenyl ring,complete loss of activity
O=C(O)c1ccc(-c2ccc([N+](=O)[O-])cc2)o1 [II],%RA (% residual enzymatic activity at 100 µM),[2],18.2 ± 5.1%
same,cytotoxicity towards eukaryotic cells (in words),eukaryotic cells,negligible cytotoxicity
"N#Cc1cc(-c2ccc(C(=O)O)o2)cc(C(F)(F)F)c1 [IV, 5-(3-Cyano-5-(trifluoromethyl)phenyl)furan-2-carboxylic acid]",remaining activity at 100 µM,[1]; [10],0.7 ± 2.7%
same,IC50,[1]; [11],15.5 ± 3.1 µM
same,Ki,[1]; kinetic analysis at different chorismic acid and compound concentrations,9.2 µM and ~9 µM
same,remaining activity at 100 µM,[1]; read-out: % residual enzymatic activity (%RA) at 100 µM,~1%
same,IC50,[1]; [12],~15 µM
same,nature of inhibition against MbtI,[1]; steady-state kinetics towards chorismic acid,competitive inhibitor
same,MIC99,"M. bovis BCG [3]; M. bovis BCG, iron-limiting conditions (chelated Sauton's medium), REMA",125 µM
same,MIC99,"M. bovis BCG [3]; Mycobacterium tuberculosis variant bovis BCG, BCG",125 µM
"N#Cc1cc(O)cc(-c2ccc(C(=O)O)o2)c1 [IX, 5-(3-cyano-5-hydroxyphenyl)furan-2-carboxylic acid]",remaining activity at 100 µM,[1]; [10],15.3 ± 2.6%
same,IC50,[1]; [11],33.5 ± 3.4 µM
same,IC50,[1]; [12],~33 µM
N#Cc1cccc(-c2ccc(C(=O)O)o2)c1 [I],%RA (% residual enzymatic activity at 100 µM),[2],3.1 ± 1.0%
same,MIC99,M. bovis BCG [4],250 µM
same,cytotoxicity towards eukaryotic cells (in words),eukaryotic cells,negligible cytotoxicity
"O=C(O)c1ccc(-c2cc(C(F)(F)F)cc(C(F)(F)F)c2)o1 [V, 5-(3,5-Bis(trifluoromethyl)phenyl)furan-2-carboxylic acid]",remaining activity at 100 µM,[1]; [10],8.9 ± 1.6%
same,IC50,[1]; [11],18.8 ± 6.8 µM
same,IC50,[1]; [12],~19 µM
"N#Cc1cc(F)cc(-c2ccc(C(=O)O)o2)c1 [VI, 5-(3-cyano-5-fluorophenyl)furan-2-carboxylic acid]",remaining activity at 100 µM,[1]; [10],8.7 ± 1.4%
same,IC50,[1]; [11],17.3 ± 3.1 µM
"COc1cc(C#N)cc(-c2ccc(C(=O)O)o2)c1 [VII, 5-(3-Cyano-5-methoxyphenyl)furan-2-carboxylic acid]",remaining activity at 100 µM,[1]; [10],10.5 ± 3.9%
same,IC50,[1]; [11],14.5 ± 2.1 µM
same,activity against MbtI (in words),[1],comparable IC50 with respect to IV
"Cc1cc(C#N)cc(-c2ccc(C(=O)O)o2)c1 [VIII, 5-(3-cyano-5-methylphenyl)furan-2-carboxylic acid]",remaining activity at 100 µM,[1]; [10],16.7 ± 3.8%
same,IC50,[1]; [11],29.1 ± 1.8 µM
same,IC50,[1]; [12],~29 µM
